{"source": "paper PMC9250534", "about": "“Synthesis and direct assay of large macrocycle diversities by combinatorial late-stage modification at picomole scale” (Nature Communications, 2022)", "data": [{"molecular_target": "MDM2 (Homo sapiens, UniProt Q00987)", "sequence (Q00987 whole entry)": "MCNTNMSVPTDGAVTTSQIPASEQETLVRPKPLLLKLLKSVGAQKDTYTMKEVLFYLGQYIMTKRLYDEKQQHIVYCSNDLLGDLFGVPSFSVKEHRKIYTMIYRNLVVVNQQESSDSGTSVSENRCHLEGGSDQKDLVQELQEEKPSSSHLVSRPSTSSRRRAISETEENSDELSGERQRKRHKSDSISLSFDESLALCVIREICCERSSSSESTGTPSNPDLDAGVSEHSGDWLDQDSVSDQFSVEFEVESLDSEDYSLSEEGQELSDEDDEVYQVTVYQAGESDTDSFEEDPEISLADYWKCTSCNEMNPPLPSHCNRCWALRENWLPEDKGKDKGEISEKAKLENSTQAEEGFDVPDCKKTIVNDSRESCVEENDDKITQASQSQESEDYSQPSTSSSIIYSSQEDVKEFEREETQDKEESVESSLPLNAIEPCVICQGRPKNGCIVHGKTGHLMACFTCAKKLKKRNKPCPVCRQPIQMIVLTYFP", "experiment": "MDM2 binding screen of Libraries 3 and 4: displacement of fluorescent probe F-M8 at 750 nM macrocycle", "conditions": "750 nM macrocycle; crude reaction; probe F-M8", "procedure": "(§1) The cyclic peptide scaffolds required for Libraries 3 and 4 were synthesized as described for those used in Library 2. Due to the presence of many N-methylated amino acids which are more difficult to couple, 200 mM HOAt was applied together with HATU. The scaffolds were diluted to 2 mM in DMSO, and 15 nL were transferred using acoustic dispensing, followed by 15 nL DMSO containing carboxylic acids (40 mM, 20 equiv.), HBTU (40 mM) and DABCO (40 mM). After 6 h reaction at room temperature, 370 nL of DMSO was added to each well, followed by 5 μL of 100 mM Tris-Cl pH 7.4 containing 0.01% v/v Tween20, for quenching overnight.", "units": {"displacement of fluorescent probe from MDM2": "%"}, "values": [{"smiles": "COc1ccc(/C=C/C(=O)NC[C@@H]2NC(=O)[C@H]3CCCN(C3)C(=O)CCSSCCNC(=O)[C@H](Cc3c[nH]c4ccccc34)NC2=O)cc1", "note": "[M9]", "displacement of fluorescent probe from MDM2": 68}]}, {"molecular_target": "MDM2 (Homo sapiens, UniProt Q00987)", "experiment": "MDM2 binding screen of Libraries 3 and 4: displacement of fluorescent probe F-M8 at 750 nM macrocycle", "conditions": "Panel b, Library 3: 63 scaffolds combinatorially acylated with 15 carboxylic acids at 30 picomole scale; displacement of fluorescent peptide probe; macrocycle 750 nM", "procedure": "as §1", "values": [{"smiles": "O=C1CCSSCCNC(=O)[C@H](Cc2cccc3ccccc23)NC(=O)[C@@H](CNC(=O)c2ccc(Cl)s2)NC(=O)C2(CC2)CN1", "note": "[X-Amcp-D-Dap-1-NaI + Acid 14]", "fraction of fluorescent probe displaced": 0.008}, {"smiles": "O=C1CCSSCCNC(=O)[C@H](Cc2cccc3ccccc23)NC(=O)[C@@H](CNC(=O)c2ccc3ccccc3c2)NC(=O)C2(CC2)CN1", "note": "[X-Amcp-D-Dap-1-NaI + Acid 107]", "fraction of fluorescent probe displaced": -0.00844}, {"smiles": "O=C(/C=C/c1ccc(Cl)cc1)NC[C@H]1NC(=O)C2(CC2)CNC(=O)CCSSCCNC(=O)[C@H](Cc2cccc3ccccc23)NC1=O", "note": "[X-Amcp-D-Dap-1-NaI + Acid 108]", "fraction of fluorescent probe displaced": 0.021}, {"smiles": "O=C(/C=C/c1ccc(OCc2ccccc2)cc1)NC[C@H]1NC(=O)C2(CC2)CNC(=O)CCSSCCNC(=O)[C@H](Cc2cccc3ccccc23)NC1=O", "note": "[X-Amcp-D-Dap-1-NaI + Acid 110]", "fraction of fluorescent probe displaced": 0.028}, {"smiles": "O=C1CCSSCCNC(=O)[C@H](Cc2cccc3ccccc23)NC(=O)[C@@H](CNC(=O)c2cccc(Oc3ccccc3)c2)NC(=O)C2(CC2)CN1", "note": "[X-Amcp-D-Dap-1-NaI + Acid 111]", "fraction of fluorescent probe displaced": 0.008}, {"smiles": "O=C(/C=C/c1ccc2ccccc2c1)NC[C@H]1NC(=O)C2(CC2)CNC(=O)CCSSCCNC(=O)[C@H](Cc2cccc3ccccc23)NC1=O", "note": "[X-Amcp-D-Dap-1-NaI + Acid 112]", "fraction of fluorescent probe displaced": -0.00533}, {"smiles": "CC(Oc1cccc(Cl)c1)C(=O)NC[C@H]1NC(=O)C2(CC2)CNC(=O)CCSSCCNC(=O)[C@H](Cc2cccc3ccccc23)NC1=O", "note": "(stereo partly drawn) [X-Amcp-D-Dap-1-NaI + Acid 113]", "fraction of fluorescent probe displaced": -0.00533}, {"smiles": "O=C(CCS(=O)(=O)c1ccccc1)NC[C@H]1NC(=O)C2(CC2)CNC(=O)CCSSCCNC(=O)[C@H](Cc2cccc3ccccc23)NC1=O", "note": "[X-Amcp-D-Dap-1-NaI + Acid 114]", "fraction of fluorescent probe displaced": 0.028}, {"smiles": "O=C1CCSSCCNC(=O)[C@H](Cc2cccc3ccccc23)NC(=O)[C@@H](CNC(=O)C2COc3ccccc3O2)NC(=O)C2(CC2)CN1", "note": "(stereo partly drawn) [X-Amcp-D-Dap-1-NaI + Acid 115]", "fraction of fluorescent probe displaced": 0.015}, {"smiles": "O=C1CCSSCCNC(=O)[C@H](Cc2ccc3ccccc3c2)NC(=O)[C@@H](CNC(=O)c2ccc(Cl)s2)NC(=O)C2(CC2)CN1", "note": "[X-Amcp-D-Dap-2-Nal + Acid 14]", "fraction of fluorescent probe displaced": 0.00133}, {"smiles": "O=C1CCSSCCNC(=O)[C@H](Cc2ccc3ccccc3c2)NC(=O)[C@@H](CNC(=O)c2ccc(Cl)cc2)NC(=O)C2(CC2)CN1", "note": "[X-Amcp-D-Dap-2-Nal + Acid 25]", "fraction of fluorescent probe displaced": -0.019}, {"smiles": "O=C1CCSSCCNC(=O)C(Cc2ccc3ccccc3c2)NC(=O)C(CNC(=O)C2CC2c2ccccc2)NC(=O)C2(CC2)CN1", "note": "[X-Amcp-D-Dap-2-Nal + Acid 105]", "fraction of fluorescent probe displaced": -0.00844}, {"smiles": "O=C(/C=C/c1ccc(Cl)cc1)NC[C@H]1NC(=O)C2(CC2)CNC(=O)CCSSCCNC(=O)[C@H](Cc2ccc3ccccc3c2)NC1=O", "note": "[X-Amcp-D-Dap-2-Nal + Acid 108]", "fraction of fluorescent probe displaced": 0.008}, {"smiles": "O=C(/C=C/c1ccc(OCc2ccccc2)cc1)NC[C@H]1NC(=O)C2(CC2)CNC(=O)CCSSCCNC(=O)[C@H](Cc2ccc3ccccc3c2)NC1=O", "note": "[X-Amcp-D-Dap-2-Nal + Acid 110]", "fraction of fluorescent probe displaced": 0.028}, {"smiles": "O=C1CCSSCCNC(=O)[C@H](Cc2ccc3ccccc3c2)NC(=O)[C@@H](CNC(=O)c2cccc(Oc3ccccc3)c2)NC(=O)C2(CC2)CN1", "note": "[X-Amcp-D-Dap-2-Nal + Acid 111]", "fraction of fluorescent probe displaced": -0.00533}, {"smiles": "O=C(CCS(=O)(=O)c1ccccc1)NC[C@H]1NC(=O)C2(CC2)CNC(=O)CCSSCCNC(=O)[C@H](Cc2ccc3ccccc3c2)NC1=O", "note": "[X-Amcp-D-Dap-2-Nal + Acid 114]", "fraction of fluorescent probe displaced": -0.00533}, {"smiles": "O=C1CCSSCCNC(=O)[C@H](Cc2ccc3ccccc3c2)NC(=O)[C@@H](CNC(=O)C2COc3ccccc3O2)NC(=O)C2(CC2)CN1", "note": "(stereo partly drawn) [X-Amcp-D-Dap-2-Nal + Acid 115]", "fraction of fluorescent probe displaced": 0.015}, {"smiles": "O=C1CCSSCCNC(=O)[C@H](Cc2c[nH]c3cc(Cl)ccc23)NC(=O)[C@@H](CNC(=O)c2ccc(Cl)s2)NC(=O)C2(CC2)CN1", "note": "[X-Amcp-D-Dap-Cl-Trp + Acid 14]", "fraction of fluorescent probe displaced": 0.008}, {"smiles": "O=C1CCSSCCNC(=O)[C@H](Cc2c[nH]c3cc(Cl)ccc23)NC(=O)[C@@H](CNC(=O)c2ccc(Cl)cc2)NC(=O)C2(CC2)CN1", "note": "[X-Amcp-D-Dap-Cl-Trp + Acid 25]", "fraction of fluorescent probe displaced": 0.021}, {"smiles": "O=C(/C=C/c1ccncc1)NC[C@H]1NC(=O)C2(CC2)CNC(=O)CCSSCCNC(=O)[C@H](Cc2c[nH]c3cc(Cl)ccc23)NC1=O", "note": "[X-Amcp-D-Dap-Cl-Trp + Acid 106]", "fraction of fluorescent probe displaced": 0.018}, {"smiles": "O=C(/C=C/c1ccc(Cl)cc1)NC[C@H]1NC(=O)C2(CC2)CNC(=O)CCSSCCNC(=O)[C@H](Cc2c[nH]c3cc(Cl)ccc23)NC1=O", "note": "[X-Amcp-D-Dap-Cl-Trp + Acid 108]", "fraction of fluorescent probe displaced": -0.025}, {"smiles": "O=C(/C=C/c1ccc(OCc2ccccc2)cc1)NC[C@H]1NC(=O)C2(CC2)CNC(=O)CCSSCCNC(=O)[C@H](Cc2c[nH]c3cc(Cl)ccc23)NC1=O", "note": "[X-Amcp-D-Dap-Cl-Trp + Acid 110]", "fraction of fluorescent probe displaced": 0.008}, {"smiles": "O=C(/C=C/c1ccc2ccccc2c1)NC[C@H]1NC(=O)C2(CC2)CNC(=O)CCSSCCNC(=O)[C@H](Cc2c[nH]c3cc(Cl)ccc23)NC1=O", "note": "[X-Amcp-D-Dap-Cl-Trp + Acid 112]", "fraction of fluorescent probe displaced": -0.00533}, {"smiles": "O=C(CCS(=O)(=O)c1ccccc1)NC[C@H]1NC(=O)C2(CC2)CNC(=O)CCSSCCNC(=O)[C@H](Cc2c[nH]c3cc(Cl)ccc23)NC1=O", "note": "[X-Amcp-D-Dap-Cl-Trp + Acid 114]", "fraction of fluorescent probe displaced": -0.00533}, {"smiles": "O=C1CCSSCCNC(=O)[C@@H](Cc2c[nH]c3ccccc23)NC(=O)[C@@H](CNC(=O)c2ccc(Cl)cc2)NC(=O)C2(CC2)CN1", "note": "[X-Amcp-D-Dap-D-Trp + Acid 25]", "fraction of fluorescent probe displaced": 0.008}, {"smiles": "O=C1CCSSCCNC(=O)[C@@H](Cc2c[nH]c3ccccc23)NC(=O)[C@@H](CNC(=O)c2ccc3ccccc3c2)NC(=O)C2(CC2)CN1", "note": "[X-Amcp-D-Dap-D-Trp + Acid 107]", "fraction of fluorescent probe displaced": 0.031}, {"smiles": "O=C(/C=C/c1ccc(OCc2ccccc2)cc1)NC[C@H]1NC(=O)C2(CC2)CNC(=O)CCSSCCNC(=O)[C@@H](Cc2c[nH]c3ccccc23)NC1=O", "note": "[X-Amcp-D-Dap-D-Trp + Acid 110]", "fraction of fluorescent probe displaced": -0.00533}, {"smiles": "O=C1CCSSCCNC(=O)[C@@H](Cc2c[nH]c3ccccc23)NC(=O)[C@@H](CNC(=O)c2cccc(Oc3ccccc3)c2)NC(=O)C2(CC2)CN1", "note": "[X-Amcp-D-Dap-D-Trp + Acid 111]", "fraction of fluorescent probe displaced": -0.019}, {"smiles": "O=C(CCS(=O)(=O)c1ccccc1)NC[C@H]1NC(=O)C2(CC2)CNC(=O)CCSSCCNC(=O)[C@@H](Cc2c[nH]c3ccccc23)NC1=O", "note": "[X-Amcp-D-Dap-D-Trp + Acid 114]", "fraction of fluorescent probe displaced": 0.008}, {"smiles": "Cn1cc(C[C@@H]2NC(=O)[C@@H](CNC(=O)c3ccc(Cl)s3)NC(=O)C3(CC3)CNC(=O)CCSSCCNC2=O)c2ccccc21", "note": "[X-Amcp-D-Dap-Me-Trp + Acid 14]", "fraction of fluorescent probe displaced": -0.032}, {"smiles": "Cn1cc(C[C@@H]2NC(=O)[C@@H](CNC(=O)c3ccc(Cl)cc3)NC(=O)C3(CC3)CNC(=O)CCSSCCNC2=O)c2ccccc21", "note": "[X-Amcp-D-Dap-Me-Trp + Acid 25]", "fraction of fluorescent probe displaced": -0.00533}, {"smiles": "Cn1cc(CC2NC(=O)C(CNC(=O)C3CC3c3ccccc3)NC(=O)C3(CC3)CNC(=O)CCSSCCNC2=O)c2ccccc21", "note": "[X-Amcp-D-Dap-Me-Trp + Acid 105]", "fraction of fluorescent probe displaced": -0.002}, {"smiles": "Cn1cc(C[C@@H]2NC(=O)[C@@H](CNC(=O)c3ccc4ccccc4c3)NC(=O)C3(CC3)CNC(=O)CCSSCCNC2=O)c2ccccc21", "note": "[X-Amcp-D-Dap-Me-Trp + Acid 107]", "fraction of fluorescent probe displaced": 0.018}, {"smiles": "Cn1cc(C[C@@H]2NC(=O)[C@@H](CNC(=O)/C=C/c3ccc(Cl)cc3)NC(=O)C3(CC3)CNC(=O)CCSSCCNC2=O)c2ccccc21", "note": "[X-Amcp-D-Dap-Me-Trp + Acid 108]", "fraction of fluorescent probe displaced": 0.008}, {"smiles": "Cn1cc(C[C@@H]2NC(=O)[C@@H](CNC(=O)/C=C/c3ccc4ccccc4c3)NC(=O)C3(CC3)CNC(=O)CCSSCCNC2=O)c2ccccc21", "note": "[X-Amcp-D-Dap-Me-Trp + Acid 112]", "fraction of fluorescent probe displaced": 0.00133}, {"smiles": "Cn1cc(C[C@@H]2NC(=O)[C@@H](CNC(=O)CCS(=O)(=O)c3ccccc3)NC(=O)C3(CC3)CNC(=O)CCSSCCNC2=O)c2ccccc21", "note": "[X-Amcp-D-Dap-Me-Trp + Acid 114]", "fraction of fluorescent probe displaced": 0.015}, {"smiles": "Cn1cc(C[C@@H]2NC(=O)[C@@H](CNC(=O)C3COc4ccccc4O3)NC(=O)C3(CC3)CNC(=O)CCSSCCNC2=O)c2ccccc21", "note": "(stereo partly drawn) [X-Amcp-D-Dap-Me-Trp + Acid 115]", "fraction of fluorescent probe displaced": 0.015}, {"smiles": "CN1C(=O)[C@@H](CNC(=O)c2ccc(Cl)s2)NC(=O)C2(CC2)CNC(=O)CCSSCCNC(=O)[C@@H]1Cc1c[nH]c2ccccc12", "note": "[X-Amcp-D-Dap-NMe-Trp + Acid 14]", "fraction of fluorescent probe displaced": 0.008}, {"smiles": "CN1C(=O)[C@@H](CNC(=O)/C=C/c2ccncc2)NC(=O)C2(CC2)CNC(=O)CCSSCCNC(=O)[C@@H]1Cc1c[nH]c2ccccc12", "note": "[X-Amcp-D-Dap-NMe-Trp + Acid 106]", "fraction of fluorescent probe displaced": -0.015}, {"smiles": "CN1C(=O)[C@@H](CNC(=O)c2ccc3ccccc3c2)NC(=O)C2(CC2)CNC(=O)CCSSCCNC(=O)[C@@H]1Cc1c[nH]c2ccccc12", "note": "[X-Amcp-D-Dap-NMe-Trp + Acid 107]", "fraction of fluorescent probe displaced": 0.031}]}, {"molecular_target": "MDM2 (Homo sapiens, UniProt Q00987)", "experiment": "MDM2 binding screen of Libraries 3 and 4: displacement of fluorescent probe F-M8 at 750 nM macrocycle", "conditions": "Panel c, Library 4: best nine scaffolds and 15 additional carboxylic acids; displacement of fluorescent probe", "procedure": "as §1", "values": [{"smiles": "O=C(O)c1cnc2ccccc2n1", "note": "[Acid 130]", "fraction of fluorescent probe displaced": 0.0035}]}]}
